Measurements: ChEMBL document CHEMBL1201862, “PubChem BioAssay data set” (2004)
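Test compounds were applied to cells in 96-well plates for 48 hours at 5 doses. GI50 marks 50% less growth.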 Calls of active or inactive are those of the source. No stated cut-off is given here; in the data, active = GI50 up to about 1.1 µM and inactive = higher.

Assays:
Assay in all cases: growth of human tumour cells (NCI), 48 h
XF498 = system: XF498
DLD-1 = system: DLD-1
HOP-18 = system: HOP-18
RXF 631 = system: RXF 631
SNB-78 = system: SNB-78
DMS-273 = system: DMS-273
M19-MEL = system: M19-MEL
DMS-114 = system: DMS-114

Measured: GI50

O=c1nc2sc3ccc4ccccc4c3n2nc1-c1ccccc1
inactive: XF498 29.6 µM | DLD-1 35.6 µM | HOP-18 30.5 µM | RXF 631 36.6 µM | SNB-78 35.8 µM | DMS-273 39.2 µM | M19-MEL 78.3 µM | DMS-114 > 100 µM

Cc1ccccc1NC(=O)C(=O)Cc1nc2ccccc2s1
inactive: XF498 > 100 µM | DLD-1 > 100 µM | HOP-18 > 100 µM | RXF 631 > 100 µM | SNB-78 92.5 µM | DMS-273 > 100 µM | M19-MEL > 100 µM | DMS-114 > 100 µM

O=C(N/C(=C\c1ccc(F)cc1)c1nc2ccccc2[nH]1)c1ccccc1
inactive: XF498 > 100 µM | DLD-1 > 100 µM | HOP-18 > 100 µM | RXF 631 > 100 µM | SNB-78 > 100 µM | M19-MEL > 100 µM | DMS-114 > 100 µM

C[C@@H]1CC(=O)C2CCCC1C2=O (some centres undefined)
inactive: DLD-1 > 100 µM | HOP-18 > 100 µM | RXF 631 > 100 µM | SNB-78 > 100 µM | DMS-273 > 100 µM | M19-MEL > 100 µM | DMS-114 > 100 µM

O=C(CCC(=O)Nc1cccc(C(F)(F)F)c1)CC(=O)c1ccc2ccccc2c1
inactive: XF498 > 100 µM | DLD-1 > 100 µM | HOP-18 > 100 µM | RXF 631 > 100 µM | SNB-78 > 100 µM | DMS-273 > 100 µM | M19-MEL > 100 µM | DMS-114 > 100 µM

O=[N+]([O-])c1ccc(C2N3CCCCC3[C@@H]3c4[nH]c5ccccc5c4CCN23)cc1 (some centres undefined)
inactive: XF498 17.8 µM | DLD-1 10.8 µM | HOP-18 67.3 µM | RXF 631 28.5 µM | SNB-78 3.96 µM | DMS-273 17.5 µM | M19-MEL 6.07 µM | DMS-114 7.19 µM

COc1cc(C(=O)C/C(CCC(=O)Nc2ccccc2[N+](=O)[O-])=N\NC(N)=O)ccc1O
inactive: XF498 6.49 µM | HOP-18 89.1 µM | RXF 631 > 100 µM | SNB-78 > 100 µM | DMS-273 > 100 µM | M19-MEL > 100 µM | DMS-114 > 100 µM

O=C(CCc1ccccc1)NS(=O)(=O)c1ccccc1
inactive: XF498 > 100 µM | DLD-1 > 100 µM | HOP-18 > 100 µM | RXF 631 > 100 µM | M19-MEL > 100 µM | DMS-114 > 100 µM

CCCC(O)[C@@H](O)c1ccc2c(c1O)C(=O)c1c(OC)cccc1C2=O (some centres undefined)
inactive: XF498 20.2 µM | DLD-1 36.9 µM | HOP-18 50.8 µM | RXF 631 28.2 µM | SNB-78 36.6 µM | DMS-273 35.5 µM | M19-MEL 24.2 µM | DMS-114 26.2 µM

CC1C=CC(C)C2(O)C(=O)NC(O)C12 (centres undefined)
inactive: DLD-1 > 100 µM | HOP-18 > 100 µM | RXF 631 > 100 µM | SNB-78 > 100 µM | DMS-273 > 100 µM | M19-MEL > 100 µM | DMS-114 > 100 µM
